In the NIST ThermoML archive (doi:10.1021/je030177j):
± gives the expanded uncertainty stated by the source.

Assay: mn = molality of the nth substance listed, in mol/kg
Details: Liquid, Capillary tube (Ostwald / Ubbelohde) method

Compound: O=S(=O)([O-])[O-].[Li+].[Li+] [lithium sulfate] + O
- viscosity (415.76 K, 30000 kPa, m1 = 0.885): 0.2944 ± 0.0049 mPa·s
- viscosity (417.42 K, 10000 kPa, m1 = 0.28): 0.2175 ± 0.0037 mPa·s
- viscosity (417.42 K, 20000 kPa, m1 = 0.28): 0.2199 ± 0.0038 mPa·s
- viscosity (417.42 K, 30000 kPa, m1 = 0.28): 0.2227 ± 0.0038 mPa·s
- viscosity (418.18 K, 10000 kPa, m1 = 0.56): 0.2443 ± 0.0041 mPa·s
- viscosity (418.18 K, 20000 kPa, m1 = 0.56): 0.2469 ± 0.0042 mPa·s
- viscosity (418.18 K, 30000 kPa, m1 = 0.56): 0.2497 ± 0.0042 mPa·s
- viscosity (420.67 K, 10000 kPa, m1 = 0.1): 0.198 ± 0.0034 mPa·s
- viscosity (420.67 K, 20000 kPa, m1 = 0.1): 0.201 ± 0.0035 mPa·s
- viscosity (420.67 K, 30000 kPa, m1 = 0.1): 0.2031 ± 0.0035 mPa·s
- viscosity (423.55 K, 10000 kPa, m1 = 0.28): 0.208 ± 0.0036 mPa·s
- viscosity (423.55 K, 20000 kPa, m1 = 0.28): 0.2106 ± 0.0036 mPa·s
- viscosity (423.55 K, 30000 kPa, m1 = 0.28): 0.2133 ± 0.0037 mPa·s
- viscosity (424.05 K, 10000 kPa, m1 = 0.885): 0.2687 ± 0.0045 mPa·s
- viscosity (424.05 K, 20000 kPa, m1 = 0.885): 0.2721 ± 0.0046 mPa·s
- viscosity (424.05 K, 30000 kPa, m1 = 0.885): 0.2756 ± 0.0047 mPa·s
- viscosity (424.55 K, 10000 kPa, m1 = 0.56): 0.233 ± 0.004 mPa·s
- viscosity (424.55 K, 20000 kPa, m1 = 0.56): 0.2359 ± 0.004 mPa·s
- viscosity (424.55 K, 30000 kPa, m1 = 0.56): 0.239 ± 0.0041 mPa·s
- viscosity (430.26 K, 10000 kPa, m1 = 0.885): 0.2564 ± 0.0044 mPa·s
- viscosity (430.26 K, 20000 kPa, m1 = 0.885): 0.2601 ± 0.0044 mPa·s
- viscosity (430.26 K, 30000 kPa, m1 = 0.885): 0.264 ± 0.0045 mPa·s
- viscosity (430.73 K, 10000 kPa, m1 = 0.28): 0.1975 ± 0.0034 mPa·s
- viscosity (430.73 K, 20000 kPa, m1 = 0.28): 0.1999 ± 0.0034 mPa·s
- viscosity (430.73 K, 30000 kPa, m1 = 0.28): 0.2024 ± 0.0035 mPa·s
- viscosity (431.72 K, 10000 kPa, m1 = 0.1): 0.1829 ± 0.0032 mPa·s
- viscosity (431.72 K, 20000 kPa, m1 = 0.1): 0.1849 ± 0.0032 mPa·s
- viscosity (431.72 K, 30000 kPa, m1 = 0.1): 0.1871 ± 0.0032 mPa·s
- viscosity (431.83 K, 10000 kPa, m1 = 0.56): 0.2212 ± 0.0038 mPa·s
- viscosity (431.83 K, 20000 kPa, m1 = 0.56): 0.2231 ± 0.0038 mPa·s
- viscosity (431.83 K, 30000 kPa, m1 = 0.56): 0.2251 ± 0.0038 mPa·s
- viscosity (437.24 K, 10000 kPa, m1 = 0.56): 0.213 ± 0.0037 mPa·s
- viscosity (437.24 K, 20000 kPa, m1 = 0.56): 0.2154 ± 0.0037 mPa·s
- viscosity (437.24 K, 30000 kPa, m1 = 0.56): 0.2185 ± 0.0037 mPa·s
- viscosity (439.37 K, 10000 kPa, m1 = 0.885): 0.2402 ± 0.0041 mPa·s
- viscosity (439.37 K, 20000 kPa, m1 = 0.885): 0.244 ± 0.0042 mPa·s
- viscosity (439.37 K, 30000 kPa, m1 = 0.885): 0.2479 ± 0.0042 mPa·s
- viscosity (440.04 K, 10000 kPa, m1 = 0.28): 0.1858 ± 0.0032 mPa·s
- viscosity (440.04 K, 20000 kPa, m1 = 0.28): 0.1885 ± 0.0033 mPa·s
- viscosity (440.04 K, 30000 kPa, m1 = 0.28): 0.191 ± 0.0033 mPa·s
- viscosity (446.35 K, 10000 kPa, m1 = 0.56): 0.2 ± 0.0035 mPa·s
- viscosity (446.35 K, 20000 kPa, m1 = 0.56): 0.203 ± 0.0035 mPa·s
- viscosity (446.35 K, 30000 kPa, m1 = 0.56): 0.206 ± 0.0035 mPa·s
- viscosity (449.15 K, 10000 kPa, m1 = 0.885): 0.2248 ± 0.0039 mPa·s
- viscosity (449.15 K, 20000 kPa, m1 = 0.885): 0.2283 ± 0.0039 mPa·s
- viscosity (449.15 K, 30000 kPa, m1 = 0.885): 0.2318 ± 0.004 mPa·s
- viscosity (449.35 K, 10000 kPa, m1 = 0.28): 0.175 ± 0.0031 mPa·s
- viscosity (449.35 K, 20000 kPa, m1 = 0.28): 0.1776 ± 0.0031 mPa·s
- viscosity (449.35 K, 30000 kPa, m1 = 0.28): 0.1803 ± 0.0031 mPa·s
- viscosity (449.55 K, 10000 kPa, m1 = 0.1): 0.163 ± 0.0029 mPa·s
- viscosity (449.55 K, 20000 kPa, m1 = 0.1): 0.1654 ± 0.0029 mPa·s
- viscosity (449.55 K, 30000 kPa, m1 = 0.1): 0.168 ± 0.003 mPa·s
- viscosity (452.17 K, 10000 kPa, m1 = 0.56): 0.1927 ± 0.0033 mPa·s
- viscosity (452.17 K, 20000 kPa, m1 = 0.56): 0.1957 ± 0.0034 mPa·s
- viscosity (452.17 K, 30000 kPa, m1 = 0.56): 0.1984 ± 0.0034 mPa·s
- viscosity (458.12 K, 10000 kPa, m1 = 0.885): 0.2109 ± 0.0036 mPa·s
- viscosity (458.12 K, 20000 kPa, m1 = 0.885): 0.2139 ± 0.0037 mPa·s
- viscosity (458.12 K, 30000 kPa, m1 = 0.885): 0.2179 ± 0.0037 mPa·s
- viscosity (458.17 K, 10000 kPa, m1 = 0.28): 0.1658 ± 0.0029 mPa·s
- viscosity (458.17 K, 20000 kPa, m1 = 0.28): 0.1682 ± 0.003 mPa·s
- viscosity (458.17 K, 30000 kPa, m1 = 0.28): 0.1704 ± 0.003 mPa·s
- viscosity (459.12 K, 10000 kPa, m1 = 0.56): 0.1843 ± 0.0032 mPa·s
- viscosity (459.12 K, 20000 kPa, m1 = 0.56): 0.1878 ± 0.0033 mPa·s
- viscosity (459.12 K, 30000 kPa, m1 = 0.56): 0.19 ± 0.0033 mPa·s
- viscosity (459.89 K, 10000 kPa, m1 = 0.1): 0.1532 ± 0.0027 mPa·s
- viscosity (459.89 K, 20000 kPa, m1 = 0.1): 0.1553 ± 0.0028 mPa·s
- viscosity (459.89 K, 30000 kPa, m1 = 0.1): 0.1577 ± 0.0028 mPa·s
- viscosity (462.13 K, 10000 kPa, m1 = 0.28): 0.162 ± 0.0029 mPa·s
- viscosity (462.13 K, 20000 kPa, m1 = 0.28): 0.1649 ± 0.0029 mPa·s
- viscosity (462.13 K, 30000 kPa, m1 = 0.28): 0.1674 ± 0.0029 mPa·s
- viscosity (466.79 K, 10000 kPa, m1 = 0.885): 0.2003 ± 0.0035 mPa·s
- viscosity (466.79 K, 20000 kPa, m1 = 0.885): 0.2038 ± 0.0035 mPa·s
- viscosity (466.79 K, 30000 kPa, m1 = 0.885): 0.2071 ± 0.0036 mPa·s
- viscosity (468.13 K, 10000 kPa, m1 = 0.56): 0.175 ± 0.0031 mPa·s
- viscosity (468.13 K, 20000 kPa, m1 = 0.56): 0.1787 ± 0.0031 mPa·s
- viscosity (468.13 K, 30000 kPa, m1 = 0.56): 0.1813 ± 0.0032 mPa·s
- viscosity (468.74 K, 10000 kPa, m1 = 0.28): 0.1558 ± 0.0028 mPa·s
- viscosity (468.74 K, 20000 kPa, m1 = 0.28): 0.1582 ± 0.0028 mPa·s
- viscosity (468.74 K, 30000 kPa, m1 = 0.28): 0.1612 ± 0.0029 mPa·s
- viscosity (468.97 K, 10000 kPa, m1 = 0.1): 0.1454 ± 0.0026 mPa·s
- viscosity (468.97 K, 20000 kPa, m1 = 0.1): 0.1477 ± 0.0026 mPa·s
- viscosity (468.97 K, 30000 kPa, m1 = 0.1): 0.15 ± 0.0027 mPa·s
- viscosity (473.25 K, 10000 kPa, m1 = 0.1): 0.1421 ± 0.0026 mPa·s
- viscosity (473.25 K, 20000 kPa, m1 = 0.1): 0.1467 ± 0.0026 mPa·s
- viscosity (473.25 K, 30000 kPa, m1 = 0.1): 0.149 ± 0.0027 mPa·s
- viscosity (475.55 K, 10000 kPa, m1 = 0.28): 0.15 ± 0.0027 mPa·s
- viscosity (475.55 K, 20000 kPa, m1 = 0.28): 0.1528 ± 0.0027 mPa·s
- viscosity (475.55 K, 30000 kPa, m1 = 0.28): 0.1555 ± 0.0028 mPa·s
- viscosity (476.95 K, 10000 kPa, m1 = 0.885): 0.1885 ± 0.0033 mPa·s
- viscosity (476.95 K, 20000 kPa, m1 = 0.885): 0.192 ± 0.0033 mPa·s
- viscosity (476.95 K, 30000 kPa, m1 = 0.885): 0.1956 ± 0.0034 mPa·s
- viscosity (479.55 K, 10000 kPa, m1 = 0.56): 0.1637 ± 0.0029 mPa·s
- viscosity (479.55 K, 20000 kPa, m1 = 0.56): 0.1668 ± 0.0029 mPa·s
- viscosity (479.55 K, 30000 kPa, m1 = 0.56): 0.1699 ± 0.003 mPa·s
- viscosity (482.35 K, 10000 kPa, m1 = 0.1): 0.1352 ± 0.0025 mPa·s
- viscosity (482.35 K, 20000 kPa, m1 = 0.1): 0.1378 ± 0.0025 mPa·s
- viscosity (482.35 K, 30000 kPa, m1 = 0.1): 0.1404 ± 0.0025 mPa·s
- viscosity (485.13 K, 10000 kPa, m1 = 0.885): 0.1797 ± 0.0032 mPa·s
- viscosity (485.13 K, 20000 kPa, m1 = 0.885): 0.1835 ± 0.0032 mPa·s
